In patent US8198307B2, “Imidazole derivatives having aryl piperidine substituent, method for preparation thereof and pharmaceutical compositions containing same” (Korea Research Institute of Chemical Technology, priority 2007, dated 2012):

Target: T1, MCH R1 (melanine-concentrating hormone receptor-1) (Homo sapiens, UniProt Q99705)
T1 construct: purchased Euroscreen, Gosselies, Belgium
Assay: Inhibitory effects on MCH R1 binding (Eu-MCH time-resolved fluorescence binding assay)
Settings: not given
In short: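 Receptor membranes were incubated 90 min at room temperature with 2 nM Eu-MCH and test compound (1 nM–10 μM final) in 25 mM HEPES pH 7.4, 5 mM MgCl2, 1 mM CaCl2, 0.5% BSA, then filter-washed. Nonspecific binding was defined with 0.5 μM MCH. Time-resolved fluorescence (ex 340/em 615 nm) gave percent inhibition of specific binding.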

T1 sequence (Q99705 whole entry, species assumed): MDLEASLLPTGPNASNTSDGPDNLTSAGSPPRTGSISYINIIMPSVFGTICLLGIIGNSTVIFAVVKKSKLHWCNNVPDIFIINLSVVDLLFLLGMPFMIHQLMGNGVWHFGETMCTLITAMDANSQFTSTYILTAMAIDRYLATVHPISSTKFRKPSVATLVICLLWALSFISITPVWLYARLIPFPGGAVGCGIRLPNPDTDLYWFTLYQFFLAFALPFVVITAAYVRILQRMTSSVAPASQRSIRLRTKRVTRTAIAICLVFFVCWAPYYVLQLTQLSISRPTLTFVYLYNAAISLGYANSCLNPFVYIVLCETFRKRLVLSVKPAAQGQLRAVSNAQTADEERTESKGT

Row | Compound | IC50
1 | CC(=O)Nc1cccc(C2CCN(CCCn3c(-c4ccc(Cl)cc4)nc4ccc([N+](=O)[O-])cc43)CC2)c1 [Example 42, 2-(4-chlorophenyl)-1-{3-[4-(3-acetylaminophenyl)piperidin-1-yl]propyl}-6-nitro-1H-benzimidazole] | 111 nM

Same assay, conditions: concentration inhibiting the binding of MCH (Eu-MCH, 2 nM) to MCH R1 by 50% in vitro; TRF readout; test range 1 nM to 10 μM; read-out: IC50

Row | Compound | IC50
2 | CCCCc1nc2cc(Br)c(C)nc2n1CCCN1CCC(c2cccc(NC(=O)C(C)C)c2)CC1 [Example 98, 6-bromo-2-butyl-5-methyl-3-{3-[4-(3-isobutyrylaminophenyl)piperidin-1-yl]propyl}-3H-imidazo[4,5-b]pyridine] | 1 nM
3 | CC(=O)Nc1cccc(C2CCN(CCCn3c(-c4ccc(C#N)cc4)nc4cc(C)c(C)cc43)CC2)c1 [Example 78, 2-(4-cyanophenyl)-1-{3-[4-(3-acetylaminophenyl)piperidin-1-yl]propyl}-5,6-dimethyl-1H-benzimidazole] | 100 nM
4 | CC(=O)Nc1cccc(C2CCN(CCCn3c(-c4ccc(Br)o4)nc4ccccc43)CC2)c1 [Example 108, 2-(5-bromofuran-2-yl)-1-{3-[4-(3-acetylaminophenyl)piperidin-1-yl]propyl}-1H-benzimidazole] | 3 nM
5 | CC(=O)Nc1cccc(C2CCN(CCCn3c(-c4cccs4)nc4ccccc43)CC2)c1 [Example 109, 2-(thiophen-2-yl)-1-{3-[4-(3-acetylaminophenyl)piperidin-1-yl]propyl}-1H-benzimidazole] | 15 nM
6 | CC(=O)Nc1cccc(C2CCN(CCCn3c(-c4ccccc4I)nc4ccccc43)CC2)c1 [Example 14, 2-(2-iodophenyl)-1-{3-[4-(3-acetylaminophenyl)piperidin-1-yl]propyl}-1H-benzimidazole] | > 10000 nM
7 | CC(=O)Nc1cccc(C2CCN(CCCn3c(CCc4cccnc4)nc4ccccc43)CC2)c1 [Example 127, 2-[2-(pyridin-3-yl)ethyl]-1-{3-[4-(3-acetamidophenyl)piperidin-1-yl]propyl}-1H-benzimidazole] | 1 nM
8 | COc1ccccc1-c1nc2ccccc2n1CCCN1CCC(c2cccc(NC(C)=O)c2)CC1 [Example 17, 2-(2-methoxyphenyl)-1-{3-[4-(3-acetylaminophenyl)piperidin-1-yl]propyl}-1H-benzimidazole] | 747 nM
9 | CC(=O)Nc1cccc(C2CCN(CCCn3c(-c4ccccc4)nc4nc(C)ccc43)CC2)c1 [Example 75] | 23 nM
10 | COc1cc(Cl)ccc1-c1nc2cc(C)c(C)cc2n1CCCN1CCC(c2cccc(NC(C)=O)c2)CC1 [Example 86, 2-(4-chloro-2-methoxyphenyl)-1-{3-[4-(3-acetylaminophenyl)piperidin-1-yl]propyl}-5,6-dimethyl-1H-benzimidazole] | 110 nM
11 | CC(=O)Nc1cccc(C2CCN(CCCCCn3c(-c4ccc(Cl)cc4)nc4ccccc43)CC2)c1 [Example 8, 2-(4-chlorophenyl)-1-{5-[4-(3-acetylaminophenyl)piperidin-1-yl]pentyl}-1H-benzimidazole] | 32 nM
12 | CC(=O)Nc1cccc(C2CCN(CCCn3c(C)nc4cc(Br)c(C)nc43)CC2)c1 [Example 92, 6-bromo-2,5-dimethyl-3-{3-[4-(3-acetylaminophenyl)piperidin-1-yl]propyl}-3H-imidazo[4,5-b]pyridine] | 188 nM
13 | CC(=O)Nc1cccc(C2CCN(CCCn3c(-c4ccc(Cl)cc4Cl)nc4ccccc43)CC2)c1 [Example 16, 2-(2,4-dichlorophenyl)-1-{3-[4-(3-acetylaminophenyl)piperidin-1-yl]propyl}-1H-benzimidazole] | 3 nM
14 | CC(=O)Nc1cccc(C2CCN(CCCn3c(-c4ccc(Br)o4)nc4cc(Cl)ccc43)CC2)c1 [Example 118, 5-chloro-2-(5-bromofuran-2-yl)-1-{3-[4-(3-acetamidophenyl)piperidin-1-yl]propyl}-1H-benzimidazole] | 20 nM
15 | CC(=O)Nc1cccc(C2CCN(CCCn3c(-c4cccc(Cl)c4)nc4ccc(Cl)cc43)CC2)c1 [Example 35, 2-(3-chlorophenyl)-1-{3-[4-(3-acetylaminophenyl)piperidin-1-yl]propyl}-6-chloro-1H-benzimidazole] | 7 nM
16 | CC(=O)Nc1cccc(C2CCN(CCCn3c(-c4ccc(Cl)cc4)nc4cc(C#N)ccc43)CC2)c1 [Example 81, 2-(4-chlorophenyl)-1-{3-[4-(3-acetylaminophenyl)piperidin-1-yl]propyl}-5-cyano-1H-benzimidazole] | 70 nM
17 | CCCCc1nc2cc(-c3ccc([N+](=O)[O-])cc3)c(C)nc2n1CCCN1CCC(c2cccc(NC(=O)C(C)C)c2)CC1 [Example 103, 2-butyl-5-methyl-6-(4-nitrophenyl)-3-{3-[4-(3-isobutyrylaminophenyl)piperidin-1-yl]propyl}-3H-imidazo[4,5-b]pyridine] | 20 nM
18 | CC(=O)Nc1cccc(C2CCN(CCCn3c(-c4cccn4C)nc4ccccc43)CC2)c1 [Example 111, 2-(1-methylpyrrol-2-yl)-1-{3-[4-(3-acetylaminophenyl)piperidin-1-yl]propyl}-1H-benzimidazole] | 9 nM
19 | CC(=O)Nc1cccc(C2CCN(CCCn3c(-c4ccoc4)nc4ccccc43)CC2)c1 [Example 107, 2-(furan-3-yl)-1-{3-[4-(3-acetylaminophenyl)piperidin-1-yl]propyl}-1H-benzimidazole] | 25 nM
20 | CC(=O)Nc1cccc(C2CCN(CCCCn3c(-c4ccccc4)nc4ccccc43)CC2)c1 [Example 5, 2-phenyl-1-{4-[4-(3-acetylaminophenyl)piperidin-1-yl]butyl}-1H-benzimidazole] | 29 nM
21 | CC(=O)Nc1cccc(C2CCN(CCCn3c(-c4ccccc4)nc4cc(Br)c(C)nc43)CC2)c1 [Example 68, 6-bromo-5-methyl-2-phenyl-3-{3-[4-(3-acetylaminophenyl)piperidin-1-yl]propyl}-3H-imidazo[4,5-b]pyridine] | 110 nM

Second part, the compound after the results:

Row | IC50 | Compound
22 | 6000 nM | CC(=O)Nc1cccc(C2CCN(CCn3c(-c4ccc(Cl)cc4)nc4ccccc43)CC2)c1 [Example 2, 2-(4-chlorophenyl)-1-{2-[4-(3-acetylaminophenyl)piperidin-1-yl]ethyl}-1H-benzimidazole]
23 | 213 nM | O=C(Nc1cccc(C2CCN(CCCn3c(-c4ccc(Cl)cc4)nc4ccccc43)CC2)c1)c1cccc(Cl)c1 [Example 66, 2-(4-chlorophenyl)-1-{3-[4-(3-(3-chlorobenzoylamino)phenyl)piperidin-1-yl]propyl}-1H-benzimidazole]
24 | 11 nM | CC(=O)Nc1cccc(C2CCN(CCCn3c(-c4ccc(Cl)cc4)nc4ccc(F)cc43)CC2)c1 [Example 31, 2-(4-chlorophenyl)-1-{3-[4-(3-acetylaminophenyl)piperidin-1-yl]propyl}-6-fluoro-1H-benzimidazole]
25 | 5 nM | CC(=O)Nc1cccc(C2CCN(CCCn3c(-c4ccc(Br)cc4)nc4ccccc43)CC2)c1 [Example 11, 2-(4-bromophenyl)-1-{3-[4-(3-acetylaminophenyl)piperidin-1-yl]propyl}-1H-benzimidazole]
26 | 680 nM | CC(=O)Nc1cccc(C2CCN(CCCn3c(-c4ccccc4)nc4nc(C)c(Br)cc43)CC2)c1 [Example 74]
27 | 239 nM | CC(=O)Nc1cccc(C2CCN(CCCn3c(-c4ccc(Cl)cc4F)nc4cc(C)c(C)cc43)CC2)c1 [Example 59, 2-(4-chloro-2-fluorophenyl)-1-{3-[4-(3-acetylaminophenyl)piperidin-1-yl]propyl}-5,6-dimethyl-1H-benzimidazole]
28 | > 10000 nM | CC(C)C(=O)Nc1cccc(C2CCN(CCn3c(-c4ccc(Cl)cc4)nc4ccccc43)CC2)c1 [Example 71, 2-(4-chlorophenyl)-1-{2-[4-(3-isobutyrylaminophenyl)piperidin-1-yl]ethyl}-1H-benzimidazole]
29 | 148 nM | CC(=O)Nc1cccc(C2CCN(CCCn3c(-c4ccccc4F)nc4ccc(Cl)cc43)CC2)c1 [Example 33, 2-(2-fluorophenyl)-1-{3-[4-(3-acetylaminophenyl)piperidin-1-yl]propyl}-6-chloro-1H-benzimidazole]
30 | 260 nM | CCCCc1nc2cc(-c3ccccc3)c(C=O)nc2n1CCCN1CCC(c2cccc(NC(=O)C(C)C)c2)CC1 [Example 102, 2-butyl-5-formyl-6-phenyl-3-{3-[4-(3-isobutyrylaminophenyl)piperidin-1-yl]propyl}-3H-imidazo[4,5-b]pyridine]
31 | 7 nM | COc1cccc(-c2nc3ccccc3n2CCCN2CCC(c3cccc(NC(C)=O)c3)CC2)c1 [Example 18, 2-(3-methoxyphenyl)-1-{3-[4-(3-acetylaminophenyl)piperidin-1-yl]propyl}-1H-benzimidazole]
32 | 60 nM | CC(=O)Nc1cccc(C2CCN(CCCn3c(C)nc4cc(C)c(C)cc43)CC2)c1 [Example 89, 2-methyl-1-{3-[4-(3-acetylaminophenyl)piperidin-1-yl]propyl}-5,6-dimethyl-1H-benzimidazole]
33 | > 10000 nM | Cc1ccc(C(=O)Nc2cccc(C3CCN(CCCn4c(-c5ccc(Cl)cc5)nc5ccccc54)CC3)c2)cc1 [Example 67, 2-(4-chlorophenyl)-1-{3-[4-(3-(4-methylbenzoylamino)phenyl)piperidin-1-yl]propyl}-1H-benzimidazole]
34 | 82 nM | CC(=O)Nc1cccc(C2CCN(CCCn3c(-c4ccccc4Cl)nc4ccc([N+](=O)[O-])cc43)CC2)c1 [Example 40, 2-(2-chlorophenyl)-1-{3-[4-(3-acetylaminophenyl)piperidin-1-yl]propyl}-6-nitro-1H-benzimidazole]
35 | 5 nM | CC(=O)Nc1cccc(C2CCN(CCCn3c(-c4cncc(Br)c4)nc4ccccc43)CC2)c1 [Example 112, 2-(5-bromopyridin-3-yl)-1-{3-[4-(3-acetylaminophenyl)piperidin-1-yl]propyl}-1H-benzimidazole]
36 | 2800 nM | CC(=O)Nc1cccc(C2CCN(CCCn3c(C)nc4ccc(C)nc43)CC2)c1 [Example 91, 2,5-dimethyl-3-{3-[4-(3-acetylaminophenyl)piperidin-1-yl]propyl}-3H-imidazo[4,5-b]pyridine]
